According to patent US10561624B2, “Methods and materials for the treatment of testosterone deficiency in men” (REPROS THERAPEUTICS INC., priority 2001, dated 2020):
“And” between values parts separate entries of the source, which are not always exact repeats. Equal entries are not always repeated. “Also recorded” adds a separate entry of the source. Structures can show the parent of a compound that is named as a salt.

Tests used:
[1] = test system: Adult, male, Baboons; assay: Effects on body weight and serum LH, FSH, PRL in male baboons; assay type: in vivo; settings: during the study
From the text: (§1) The samples analyzed were sera taken on the day of first treatment before being given test article (day 0), after 12 days of treatment (day 12) and 7 days after the last treatment (end or wash-out).

[2] = test system: Adult, male, Baboons; assay: Effects on clinical chemistry parameters in male baboons; assay type: in vivo; settings: for serum glucose: changes within the normal range; for anionic gap: day 12 of treatment and 7 days after treatment (washout); for Alkaline phosphatase (ALP): following treatment; for serum cholesterol: not statistically significant, within the normal range
From the text: as §1

[3] = Ernst et al.; cited from earlier work
[4] = test system: Adult, male, Baboons; assay: Effects of Clomids on serum testosterone in male baboons; settings: for effect on total serum testosterone / Serum Testosterone Levels, 12 days: 1.5 mg/kg for 12 consecutive days; for effect on total serum testosterone: male baboons; for Serum Testosterone Levels, 6 days, mean / Serum Testosterone Levels, 12 days, mean / Serum Testosterone Levels, wash-out, mean / Serum Testosterone Levels, baseline, mean / Serum Testosterone Levels, 0 day, mean: group mean of 3 baboons; for Serum Testosterone Levels, 6 days, mean / Serum Testosterone Levels, 6 days: 1.5 mg/kg daily, day 6; for Serum Testosterone Levels, 12 days, mean: 1.5 mg/kg for 12 days; for Serum Testosterone Levels, 12 days, mean / Serum Testosterone Levels, 12 days: day 12; for Serum Testosterone Levels, wash-out, mean / Serum Testosterone Levels, wash-out: 7 days after the last treatment; for Serum Testosterone Levels, baseline, mean: before treatment; for Serum Testosterone Levels, 0 day, mean / Serum Testosterone Levels, 0 day: day 0, before first dose; for Serum Testosterone Levels, 6 days / Serum Testosterone Levels, 12 days / Serum Testosterone Levels, wash-out / Serum Testosterone Levels, baseline / Serum Testosterone Levels, 0 day: individual baboon; for Serum Testosterone Levels, 6 days / Serum Testosterone Levels, 12 days: 1.5 mg/kg; for Serum Testosterone Levels, baseline: baseline Dec. 3, 2001, before treatment
From the text: as §1

[5] = cited from earlier work
[6] = test system: men; settings: cited from earlier work

## CCN(CC)CCOc1ccc(/C(=C(\Cl)c2ccccc2)c2ccccc2)cc1 [Enclomid, trans-clomiphene]
[1]
  serum prolactin (PRL): decrease
[2]; 12-day treatment, values stayed within the normal range
  platelets: clear effect
[2]; between day 0 and Day 12
  serum creatinine: no differences
[2]
  serum glucose: no increases with treatment
  anionic gap: raised this parameter towards normal values
  Alkaline phosphatase (ALP): decreased in value
  serum cholesterol: tended to decrease
[2]; in vivo
  counts of lymphocytes and eosinophiles: raising the counts
  red blood cell population: substantive effects
[2]; mean percent remains in the normal range
  count and percent lymphocytes: increase
[2]; very strong after the 7-day washout, below the normal range
  percent of granulocytes in the blood: strong effect
[3]
  estrogenic / antiestrogenic activity: antiestrogenic
[4]
  effect on total serum testosterone: significant increases in total serum testosterone; also recorded: more effective than Clomid or Zuclomid
  Serum Testosterone Levels, 6 days, mean: 1144.4 ng/dL
  Serum Testosterone Levels, 12 days, mean: 1088.5 ng/dL
  Serum Testosterone Levels, wash-out, mean: 325.8 ng/dL
  Serum Testosterone Levels, baseline, mean: 134.0 ng/dL
  Serum Testosterone Levels, 0 day, mean: 105.0 ng/dL
  Serum Testosterone Levels, 6 days: 1223.8 ng/dL and 1128.2 ng/dL and 1081.1 ng/dL
  Serum Testosterone Levels, 12 days: 633.6 ng/dL and 1466 ng/dL and 1166 ng/dL
  Serum Testosterone Levels, wash-out: 307.2 ng/dL and 399.2 ng/dL and 271 ng/dL
  Serum Testosterone Levels, baseline: 64.57 ng/dL and 166.86 ng/dL and 170.45 ng/dL
  Serum Testosterone Levels, 0 day: 74.96 ng/dL and 133.59 ng/dL and 106.47 ng/dL
[4]; between day 12 and day 18 (washout)
  change of total serum testosterone after cessation of treatment: significant drop
[4]; days 6 and 12 vs baseline or day 0
  total serum testosterone on days 6 and 12 compared with baseline or day 0 (FIG. 3 time course): significantly and statistically raised total serum testosterone
[4]; inferred from testosterone drop after cessation
  clearance from the circulation: readily cleared from the circulation

## CCN(CC)CCOc1ccc(/C(=C(/Cl)c2ccccc2)c2ccccc2)cc1 [Zuclomid, cis-clomiphene]
[2]
  serum glucose: increase
  anionic gap: lower values than the Enclomid group
  Alkaline phosphatase (ALP): not elevated
  serum cholesterol: tended to increase
[2]; in vivo
  AST: lowering
  hematocrit: substantive effects
  red blood cell population: substantive effects
[3]
  estrogenic / antiestrogenic activity: more potent and more estrogenic
[5]; relative to the other isomer in Clomid
  half-life: longer half-life
[5]; reported in literature
  residual blood levels following a single dose: in excess of one month
[4]
  effect on total serum testosterone: did not raise total serum testosterone to any extent; also recorded: not effective
  Serum Testosterone Levels, 6 days, mean: 178.5 ng/dL
  Serum Testosterone Levels, 12 days, mean: 357.9 ng/dL
  Serum Testosterone Levels, wash-out, mean: 498.1 ng/dL
  Serum Testosterone Levels, baseline, mean: 170.6 ng/dL
  Serum Testosterone Levels, 0 day, mean: 394.2 ng/dL
  Serum Testosterone Levels, 6 days: 137.51 ng/dL and 169.98 ng/dL and 227.95 ng/dL
  Serum Testosterone Levels, 12 days: 314.5 ng/dL and 406.1 ng/dL and 353.0 ng/dL
  Serum Testosterone Levels, wash-out: 359.7 ng/dL and 860.5 ng/dL and 274.1 ng/dL
  Serum Testosterone Levels, baseline: 124.84 ng/dL and 104.66 ng/dL and 282.29 ng/dL
  Serum Testosterone Levels, 0 day: 210.4 ng/dL and 67.37 ng/dL and 904.82 ng/dL

## CCN(CC)CCOc1ccc(C(=C(Cl)c2ccccc2)c2ccccc2)cc1 [Clomid, clomiphene citrate]
[2]
  serum glucose: increase
  anionic gap: lower values than the Enclomid group
[6]; Guay et al. 1995, 2 months
  LH, FSH, and testosterone after 2 months: increase in LH, FSH, and testosterone
  erectile dysfunction: no effects on erectile dysfunction
[6]; Tenover et al. 1987
  FSH, LH in young and old men: increased in FSH, LH
  free and total testosterone in men: increases in free and total testosterone
[6]; WHO study, 6 months of treatment
  semen quality or fertility: no changes in semen quality or fertility
[6]; approved cis/trans mixture
  side effects: blurred vision, abdominal discomfort, gynecomastia, testicular tumors, vasomotor flushes, nausea, and headaches
[6]; other studies
  genotoxicity and tumor enhancement: genotoxic and tumor enhancement effects
[4]; day 6 and later, compared to animals receiving Enclomid
  variability of total testosterone levels (coefficients of variations): more variable total testosterone levels
[4]
  Serum Testosterone Levels, 6 days, mean: 559.3 ng/dL
  Serum Testosterone Levels, 12 days, mean: 588.7 ng/dL
  Serum Testosterone Levels, wash-out, mean: 203.6 ng/dL
  Serum Testosterone Levels, baseline, mean: 111.5 ng/dL
  Serum Testosterone Levels, 0 day, mean: 161.4 ng/dL
[4]; listed as CLO
  Serum Testosterone Levels, 6 days: 940.97 ng/dL and 585.92 ng/dL and 151.12 ng/dL
  Serum Testosterone Levels, 12 days: 891.5 ng/dL and 555.6 ng/dL and 318.9 ng/dL
  Serum Testosterone Levels, wash-out: 150.9 ng/dL and 316.3 ng/dL and 143.6 ng/dL
  Serum Testosterone Levels, baseline: 79.01 ng/dL and 97.55 ng/dL and 158.06 ng/dL
  Serum Testosterone Levels, 0 day: 76.15 ng/dL and 305.24 ng/dL and 102.94 ng/dL
